Reference: patent publication US8350062B2, “Synthesis and anticancer activity of new actin-targeting small-molecule agents” (priority 2009, dated 2013)

How the values were obtained:
A549 tumor xenografts = assay: A549 tumor xenograft growth in nude athymic mice; format: in vivo; conditions: 20 mg/kg i.p. on 3rd, 5th and 7th day
Method: (§1) Initially, we established that 10 had no observed toxicity in mice up to 50 mg/kg a single dose administered i.p. Toxicity was assessed by daily weight measurements and mouse behavior compared to non-injected mice. Next, we established tumor xenografts by injecting A549 cells subcutaneously into two groups of nude athymic mice (6 animals per group). The first group was injected only with DMSO control. The second group of animals received three i.p. doses of analog 10 (20 mg/kg) on the 3rd, 5th and 7th day after the initial tumor challenge. Tumor growth was monitored over a period of five weeks. The tumor grew rapidly in the control mice population and reached an average size of 731 mm^3 at the end of 4 weeks. […] The average tumor size for this population was 308 mm^3 after 4 weeks.
A population of 22 nude athymic mice was injected subcutaneously with A549 cells (10^7 cells in 100 μl PBS each). A subpopulation of 12 mice was injected with analog 10 in 1% DMSO at 20 mg/kg on the 3rd, 5th and 7th day following treatment with A549 cells. A control population of 10 mice was injected with 1% DMSO. Tumor growth was measured over 5 weeks.

PC3 cells = assay: Growth of PC3 cells over 96 h; format: cell-based, human; conditions: same growth conditions
Method: Cell Viability Assays. All assays were performed using at least three replicate wells for each concentration tested. Original 10-25 mM DMSO stock solution of bistramide A or its analogs was diluted to 100 μM for analogs 4-8, 10 μM for analog 3, 5 μM for analog 2 and 1 μM for bistramide A (1) with F-12K cell culture media supplemented with 10% fetal bovine serum, 100 I.U./ml penicillin, 100 μg/ml streptomycin and 2 mM L-glutamine. Two-fold serial dilutions were performed and used for cell-based assays. A549 cells were grown in 96-well white plates at the density of 1,000 cells per well in 100 μl F-12K cell culture media. Cells were allowed to attach over 24 h and treated with 30 μl of the drug solution and incubated further for 48 h. After incubation, cell viability was determined using luminescence-based commercial kit (CellTiter-Glo, Promega) and luminescence measured using a Wallac Victor 3 plate reader. To measure cell growth inhibition, viability assays were performed twice: at initial time point T0 and after 48 h incubation (T48). Change in the number of viable cells was measured, and GI50 was calculated from sigmoidal plots. For analog 10, growth of A549 and PC3 cells was monitored over 96 h following addition of the drug. 100 μM was the highest concentration tested. At no point did the total DMSO conc. exceed 1%.

[1] = tested on: 60 different human tumor cell lines; assay: NCI 60 cell line single dose screen, whole panel; format: cell-based; conditions: 10 micromolar, mean over cell lines
From the text: Analog 10 was screened utilizing 60 different human tumor cell lines, representing leukemia, melanoma and cancers of the lung, colon, brain, ovary, breast, prostate, and kidney in order to show selective growth inhibition or cell killing of particular tumor cell lines. This screen is unique in that the complexity of a 60 cell line dose response produced by a given compound results in a biological response pattern which can be utilized in pattern recognition algorithms (COMPARE program. See: http://dtp.nci.nih.gov/docs/compare/compare.html). Using these algorithms, it is possible to assign a putative mechanism of action to a test compound, or to determine that the response pattern is unique and not similar to that of any of the standard prototype compounds included in the NCI database. […]
Following drug addition, the plates are incubated for an additional 48 h at 37° C., 5% CO2, 95% air, and 100% relative humidity. […] Bound stain is subsequently solubilized with 10 mM trizma base, and the absorbance is read on an automated plate reader at a wavelength of 515 nm. […] Using the absorbance measurements [time zero, (Tz), control growth, (C), and test growth in the presence of drug (Ti)], the percentage growth is calculated.

HL-60(TB) = assay: NCI 60 cell line single dose screen; format: cell-based, human; conditions: HL-60(TB) (Leukemia), 10 micromolar, 48 h
[2] = Single dose i.p. toxicity in mice; format: in vivo; conditions: daily weight and behavior
Method: as §1

G-actin = molecular target: T1, G-actin (Oryctolagus cuniculus, UniProt P68135); assay: Isothermal titration calorimetry, binding to monomeric actin; set-up: species or system rabbit; conditions: isothermal titration calorimetry, 25° C.; read-out: Kd
T1 construct: Actin was purified from rabbit muscle acetone powder; tissue Pel-Freez Biologicals (acetone powder); host or cells: rabbit muscle acetone powder
Method: Isothermal Titration Calorimetry. A solution of rabbit skeletal muscle actin (5-10 μM) was titrated with bistramide A or its analog (50-100 μM) at 25° C. in buffer containing 2 mM Tris HCl, pH 8.0, 0.2 mM CaCl2, 0.01% NaN3, 0.2 mM ATP, 0.2 mM 2-mercaptoethanol. Dissociation constants were calculated from the binding curve using Origin analytical software (OriginLab) with the binding model involving a single set of identical sites

[3] = tested on: F-actin in DU145 prostate cancer cell line; assay: F-actin depolymerization in DU145 prostate cancer cell line; format: cell-based, human
From the text: We also examined the ability of 10 to depolymerize F-actin in live cells. The actin cytoskeleton can be readily visualized by fluorescent microscopy following Alexa Fluor 488 phalloidin staining.

In the case of `COCCC(=O)NC[C@H](O)[C@H](C)C(=O)NCCC[C@H]1O[C@@]2(CCC[C@@H](CC[C@H](C)/C=C(\C)[C@H](C)O)O2)CCC1C` (stereo partly drawn) [Analog 10], the drug-based cytotoxicity (A549 tumor xenografts) is reported as “no significant drug-based cytotoxicity was observed”, the tumor growth (A549 tumor xenografts) is reported as “substantially inhibited” and the average tumor size (A549 tumor xenografts; after 4 weeks) is reported as 308 mm^3. For the same molecule, the “sensitivity of PC3 cells compared with A549 cells” value (PC3 cells) was “substantially less sensitive”, the “Growth Percent, Mean” value [1] was 50.03% and the “Growth Percent” value (HL-60(TB)) was 51.51%. For the same molecule, the “dose with no observed toxicity” value [2] was “up to 50 mg/kg”, the Kd (G-actin) was 9 nM and the “F-actin depolymerization in DU145 cells” value [3] was “A similar effect of 10 on F-actin depolymerization was also observed”.
